Data from patent US9868737B2, “Pyridino[1,2-A]pyrimidone analogue used as MTOR/P13K inhibitor” (CISEN PHARMACEUTICAL CO., LTD., priority 2014, dated 2018).
Read-outs that look alike come from different tables or passages of the source.

System: MCF-7 cells
Experiment: In vitro test of cell activity (MCF-7 cells, insulin stimulation, ELISA-One fluorescence)
Type: cell-based
Conditions: Homo sapiens, MCF7, MCF-7 cells; for inhibition at 1 µM: conc. 1 μM; for inhibition at 0.5 µM: conc. 0.5 μM; for inhibition at 0.25 µM: conc. 0.25 μM
Method: Example In Vitro Tests of Cell Activities Experimental Steps and Methods:
1) MCF-7 cells were inoculated at the density of 2.5×10^4 cells/well into 96-well plates (the culture medium used should be a complete culture medium containing 10% FBS).
2) On the next day, the medium in each well was drawn out. A certain concentration (preliminary screening) or a series of concentration (IC50 test) of compounds were dissolved in a culture medium without serum and added to the 96-well plates to culture cells for 2 hours.
3) Insulin was dissolved in a culture medium without serum, added to the cultured cells and incubated for 30 minutes, wherein the final concentration of insulin was […].
4) A lysis solution was prepared according to the following method during the waiting period for the reaction:
a) Enhancer solution was removed from the refrigerator to melt in advance.
b) Enhancer solution was diluted 10 times with the 5× Lysis Buffer to give a concentrated lysis solution.
c) The concentrated lysis solution was diluted 5 times with double distilled water to give the lysis solution.
5) The medium in each well was completely removed and each well was quickly rinsed with PBS once.
6) 150 μl of the freshly prepared lysis solution was added to each well and shaked at room temperature for 10 minutes.
7) After confirming that all cells were detached, the lysis solution together with the cell fragments was transferred into a 1.5 ml tube.
8) The tube was shaked on vortes mixer to make the lysis solution and cells mix completely and then the mixture was centrifugated at 4° C. under 12000 g for 10 minutes.
9) The number of strips of ELISA-one micro-well plate that is required was calculated. The needless strips were removed from the frame, put back into the storage bag and sealed. Before the strips of micro-well plate were used, 200 μl of double distilled water was used to rinse each well to remove preservative.
10) 50 μl of antibody mixture was added to each well. (The antibody mixture solution was prepared by mixing the medium antibody reagent and the enzyme labeled antibody reagent with an equal proportion. The preparation of antibody mixture didn't need vortex.)
11) 25 μl of cell lysates was added to each well of ELISA-One micro-well plate. The micro-well plate was covered with adhesive sealing film and incubated on a micro-well plate oscillation instrument at room temperature for 1 hour.
12) Each well was rinsed with 150 μl of 1× rinsing buffer 3 times. After the last rinsing, the rinsing buffer in the well was completely removed. If necessary, the 1× rinsing buffer could be allowed to stay in the micro-well plate for up to 30 minutes so that the substrate mixed solution could be prepared during such time period.
13) The substrate mixed solution should be prepared just before each use, 10 μl of the substrate mixed solution was added to each well and the micro-well plate was sealed with tin-foil and incubated on the micro-well plate oscillation instrument at room temperature for 10 minutes.
14) 10 μl of stop solution was added to each well and mixed slightly (5-10 seconds) on the micro-well plate oscillation instrument.
15) The corresponding ELISA-One filter group was assembled and used to read the fluorescence signal intensity.

| SMILES | IC50 (read-out: IC50 p-AKT) [nM] | IC50 (read-out: IC50 p-p70S6K) [nM] | inhibition at 0.5 µM (read-out: % inhibition AKT) [%] | inhibition at 0.5 µM (read-out: % inhibition p70s6k) [%] | also measured |
| --- | --- | --- | --- | --- | --- |
| COc1ncc(-c2ccc3nccc(=O)n3c2)cc1NS(=O)(=O)c1cc(F)ccc1F [compound 4] | ≤ 50 | 100 to 250 |  |  | inhibition at 1 µM (read-out: % inhibition AKT): 95.6%; inhibition at 1 µM (read-out: % inhibition p70s6k): 50.8% |
| COc1ncc(-c2ccc3nccc(=O)n3n2)cc1NS(=O)(=O)c1cc(F)ccc1F [compound 76] |  |  | 54.3 | 12.2 |  |
| COc1ncc(-c2cn3c(=O)ccnc3cc2C)cc1NS(=O)(=O)c1ccc(F)cc1C [compound 126] |  |  | -12.7 | 2.4 |  |
| COc1ncc(-c2ccc3ncc(Cl)c(=O)n3c2)cc1NS(=O)(=O)c1[nH]c(C)nc1C [compound 165] |  |  |  |  | inhibition at 0.25 µM (read-out: % inhibition AKT): 49.5%; inhibition at 0.25 µM (read-out: % inhibition p70s6k): 63.7% |
| COc1ncc(-c2cn3c(=O)ccnc3cc2F)cc1NS(=O)(=O)c1ccc(F)cc1Cl [compound 117] |  |  | 63.7 | 16.6 |  |
| COc1ncc(-c2ccc3nccc(=O)n3c2C)cc1NS(=O)(=O)c1c(F)cccc1F [compound 58] |  |  | 60.3 | 32.8 |  |
| O=c1ccnc2ccc(-c3cnc(Cl)c(NS(=O)(=O)c4ccc(F)cc4F)c3)cn12 [compound 16] | ≤ 50 | > 250 |  |  | inhibition at 1 µM (read-out: % inhibition AKT): 91.6%; inhibition at 1 µM (read-out: % inhibition p70s6k): 75.1% |
| COc1ncc(-c2ccc3nccc(=O)n3c2)cc1NS(=O)(=O)CC(F)(F)F [compound 13] |  |  |  |  | inhibition at 1 µM (read-out: % inhibition AKT): 78.3%; inhibition at 1 µM (read-out: % inhibition p70s6k): 53% |
| CCOc1cnc2ccc(-c3cnc(OC)c(NS(=O)(=O)c4ccccc4Cl)c3)cn2c1=O [compound 173] |  |  |  |  | inhibition at 0.25 µM (read-out: % inhibition AKT): 88.9%; inhibition at 0.25 µM (read-out: % inhibition p70s6k): 82.6% |
| COc1ncc(-c2cn3c(=O)ccnc3cc2F)cc1NS(=O)(=O)c1ccc(C(F)(F)F)cc1 [compound 118] |  |  | 27.8 | 11.5 |  |
| COc1ncc(-c2ccc3nccc(=O)n3n2)cc1NS(=O)(=O)c1cccc(F)c1 [compound 79] |  |  | 63.3 | 15.9 |  |
| COc1ncc(-c2ccc3nccc(=O)n3n2)cc1NS(=O)(=O)c1ccccc1Cl [compound 74] |  |  | 74.1 | 26 |  |
| COc1ncc(-c2cn3c(=O)ccnc3cc2F)cc1NS(=O)(=O)c1ccccc1F [compound 113] |  |  | -7.6 | 4.6 |  |
| COc1ncc(-c2ccc3ncc(O)c(=O)n3c2)cc1NS(=O)(=O)c1ccccc1Cl [compound 102] |  |  |  |  | inhibition at 0.25 µM (read-out: % inhibition AKT): 37.3%; inhibition at 0.25 µM (read-out: % inhibition p70s6k): 18.2% |
| COc1ncc(-c2ccc3nccc(=O)n3c2C)cc1NS(=O)(=O)c1ccccc1F [compound 55] |  |  | 65.7 | 42.3 |  |
| COc1ncc(-c2ccc3nccc(=O)n3c2C)cc1NS(=O)(=O)c1ccc(C#N)cc1 [compound 59] |  |  | 59.7 | 26.5 |  |
| COc1ncc(-c2cn3c(=O)ccnc3cc2F)cc1NS(=O)(=O)c1ccc(F)cc1F [compound 112] |  |  | 40.8 | 3.6 |  |

Further lines, with some results ahead:

| IC50 (read-out: IC50 p-AKT) [nM] | IC50 (read-out: IC50 p-p70S6K) [nM] | SMILES | inhibition at 0.5 µM (read-out: % inhibition AKT) [%] | inhibition at 0.5 µM (read-out: % inhibition p70s6k) [%] | also measured |
| --- | --- | --- | --- | --- | --- |
| ≤ 50 | 50 to 100 | COc1ncc(-c2ccc3ncc(OC)c(=O)n3c2)cc1NS(=O)(=O)c1ccc(F)cc1C [compound 106] | 96.2 | 91.8 |  |
| 50 to 100 | > 250 | COc1ncc(-c2ccc3ncc(Cl)c(=O)n3c2)cc1NS(=O)(=O)c1cnc(N)s1 [compound 161] |  |  | inhibition at 0.25 µM (read-out: % inhibition AKT): 79.5%; inhibition at 0.25 µM (read-out: % inhibition p70s6k): 41% |
| ≤ 50 |  | COc1ncc(-c2ccc3ncc(OCC4OCCO4)c(=O)n3c2)cc1NS(=O)(=O)c1sc(C)nc1C [compound 186] |  |  |  |
| ≤ 50 | ≤ 50 | COCOc1cnc2ccc(-c3cnc(OC)c(NS(=O)(=O)c4ccc(F)cc4F)c3)cn2c1=O [compound 179] |  |  |  |
| ≤ 50 |  | COc1ncc(-c2ccc3ncc(OCCOC(C)C)c(=O)n3c2)cc1NS(=O)(=O)c1sc(C)nc1C [compound 194] |  |  |  |
| ≤ 50 | 50 to 100 | COc1ncc(-c2ccc3ncc(C)c(=O)n3c2)cc1NS(=O)(=O)c1ccccc1Cl [compound 85] | 95.8 | 88.3 |  |
| > 250 |  | COc1ncc(-c2ccc3nn(C)c(=O)n3c2)cc1NS(=O)(=O)c1ccc(F)cc1F [compound 234] |  |  |  |
| ≤ 50 | 100 to 250 | COc1ncc(-c2ccc3ncc(C)c(=O)n3c2)cc1NS(=O)(=O)c1cccc(F)c1 [compound 86] | 92.8 | 88.1 |  |
| ≤ 50 | ≤ 50 | COc1ncc(-c2ccc3nccc(=O)n3c2)cc1NS(=O)(=O)c1ccc(C)s1 [compound 35] | 93.3 | 86 |  |
| ≤ 50 |  | COCCOc1cnc2ccc(-c3cnc(OC)c(NS(=O)(=O)c4ccc(N)nc4C)c3)cn2c1=O [compound 190] |  |  |  |
| 50 to 100 | 100 to 250 | COc1ncc(-c2ccc3ncc(Cl)c(=O)n3c2)cc1NS(=O)(=O)c1cnc(C)s1 [compound 156] |  |  | inhibition at 0.25 µM (read-out: % inhibition AKT): 77.9%; inhibition at 0.25 µM (read-out: % inhibition p70s6k): 74.1% |
| ≤ 50 |  | COCCOc1cnc2ccc(-c3cnc(OC)c(NS(=O)(=O)c4sc(N(C)C)nc4C)c3)cn2c1=O [compound 193] |  |  |  |
| 100 to 250 | 100 to 250 | COc1ncc(-c2ccc3nccc(=O)n3c2)cc1NS(=O)(=O)c1ccc(C)nc1 [compound 32] | 75.1 | 84.2 |  |
| ≤ 50 |  | COCCOc1cnc2ccc(-c3cnc(OC)c(NS(=O)(=O)c4sc(OC)nc4C)c3)cn2c1=O [compound 195] |  |  |  |
| 50 to 100 |  | COc1ncc(-c2ccc3ncc(OC4CCC(OC)CC4)c(=O)n3c2)cc1NS(=O)(=O)c1sc(C)nc1C (stereo not drawn) [compound 207] |  |  |  |
| ≤ 50 | ≤ 50 | COc1ncc(-c2ccc3ncc(Cl)c(=O)n3c2)cc1NS(=O)(=O)c1cccc(Cl)c1 [compound 141] | 96.1 | 88.1 |  |
| ≤ 50 |  | COc1ncc(-c2ccc3ncc(OCC4CCOC4)c(=O)n3c2)cc1NS(=O)(=O)c1sc(C)nc1C (stereo not drawn) [compound 200] |  |  |  |
| ≤ 50 | 50 to 100 | COc1ncc(-c2ccc3ncc(OC)c(=O)n3c2)cc1NS(=O)(=O)c1ccc(F)cc1F [compound 103, 2,4-difluoro-N-(2-methoxy-5-(3-methoxy-4-oxo-4H-pyrido[1,2-a]pyrimidin-7-yl)pyridin-3-yl) benzsulfamide] | 94.5 | 89.4 |  |
| ≤ 50 | 50 to 100 | COc1ncc(-c2ccc3ncc(Cl)c(=O)n3c2)cc1NS(=O)(=O)c1nc(C)c(C)s1 [compound 157] |  |  | inhibition at 0.25 µM (read-out: % inhibition AKT): 79.2%; inhibition at 0.25 µM (read-out: % inhibition p70s6k): 90.8% |
| ≤ 50 |  | COCOc1cnc2ccc(-c3cnc(OC)c(NS(=O)(=O)c4sc(C)nc4C)c3)cn2c1=O [compound 181] |  |  |  |
| ≤ 50 | 50 to 100 | COc1ncc(-c2ccc3ncc(Cl)c(=O)n3c2)cc1NS(=O)(=O)c1ccc(F)cc1C [compound 134] | 94.9 | 87.7 |  |
| > 250 |  | COc1ncc(-c2ccc3ncc(N(C)C)c(=O)n3c2)cc1NS(=O)(=O)c1ccc(F)cc1F [compound 96] |  |  |  |
| ≤ 50 |  | CNc1nc(C)c(S(=O)(=O)Nc2cc(-c3ccc4ncc(OCCOC)c(=O)n4c3)cnc2OC)s1 [compound 189] |  |  |  |
| ≤ 50 |  | COc1ncc(-c2ccc3ncc(OC4COC4)c(=O)n3c2)cc1NS(=O)(=O)c1sc(C)nc1C [compound 203] |  |  |  |
